Counter-ions that a name gives are not always drawn. Like-named read-outs stand apart in the source and are kept apart here.
Columns and labels:
[1] = test system: UCI101 ovarian cancer cells; assay: Alamar Blue cell growth inhibition, UCI101; assay type: cell-based
In short: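 UCI101 cells at 50% confluence treated 48 h in triplicate with compound (0–10 μM series) or 0.1% DMSO vehicle as 100% control. Alamar Blue added at 1/10 volume for 2 h; absorbance read at 570 and 600 nm, percent growth inhibition from the manufacturer's formula.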

[2] = preliminary toxicity and serum conversion of 5b; assay type: in vivo, mice
From the text: We next tested whether 5b could be converted into stilbene 4a in circulation. […] The in vivo efficacy of 5b and 5c was compared to stilbene 4a in a pilot study using 5 mice in each group.

MDA-MB231 cells = assay: immunofluorescent staining of tubulin, MDA-MB231; assay type: cell-based; details: CA4 10 nM, stilbene 4a 100 nM, vincristine 100 nM, 5b 3 μM; 16 hours
From the text: Nuclei were stained with 4′,6-diamidino-2-phenylindole (DAPI). Control cells show the reticular pattern of the microtubule network.

[3] = water solubility of stilbene and carbamate prodrug (salts and free base); assay type: physicochemical; details: for solubility: water, 20 °C, 20° C.
Experimental: Stilbene prodrugs may be made by attaching to a stilbene derivative of interest (e.g. a stilbene derivative with anti-tumor activity), chemical groups (or moieties) that render the stilbene derivative more water soluble than before such a modification is carried out. By “water soluble” we mean that more than 20 mg compound can be fully dissolved in 1 mL of water. Further, the chemical groups that are attached to the stilbene derivative to make the derivative water soluble are labile (i.e. removable) in that, upon exposure to in vitro or in vivo hydrolyzing conditions, the chemical groups are removed or dissociated from the stilbene derivative by hydrolysis, releasing the active, anti-tumor form of the stilbene derivative. The chemical groups which are attached may themselves be biologically active, and are, at least, not biologically injurious to cells or mammals. […] As illustrated, morfolinoethyl-urea, morfolinoethyl-carbamate and triethylene glycol (TEG) groups (5a, 5b, 5c, respectively) may be used for this purpose.

UCI101 cells [4] = assay: immunofluorescent staining of tubulin, UCI101; assay type: cell-based; details: CA4 10 nM, stilbene 4a 100 nM, 5b 3 μM; 16 hours
From the text: Nuclei were stained with DAPI.

UCI101 cells [5] = assay: cell cycle analysis (propidium iodide, FACScan), UCI101; assay type: cell-based
Experimental: Cells were stained with propidium iodide and analyzed with FACScan. Both 5b at 3 μM and stilbene 4a at 30 nM induce a subG0/1 population that represents the dead population. At higher concentrations of either compound, nearly all cells are dead.
(a) In vitro sensitivity of UCI101 cells toward three potential stilbene prodrugs, 5a-c, was tested in 96-well plates using Alamar Blue™ assays to determine cell growth inhibition. […] (b) 5b induces cell cycle change and apoptosis in UCI101 cells. […] A subG0/1 population, representing apoptotic cells, appeared along with a decrease of the G1/G2 ratio after cells were treated with 3 μM 5b. […] (c) Cells treated with stilbene 4a and 5b were stained with phospho-histone 3B, a mitotic marker. The positive signals of phospho-histone 3B were shown in green and nuclei were stained with DAPI in blue. […] (d) In vivo efficacy of 5b compared with stilbene 4a. Nude mice were injected with UCI101 ovarian cancer cells and treated with 7 doses of 5b,c or stilbene 4a every 2-3 days. Tumor volume was calculated and plotted against days.

UCI101 cells [6] = assay: phospho-histone 3B mitotic marker staining; assay type: cell-based
Experimental: (§1) (a) In vitro sensitivity of UCI101 cells toward three potential stilbene prodrugs, 5a-c, was tested in 96-well plates using Alamar Blue™ assays to determine cell growth inhibition. […] (b) 5b induces cell cycle change and apoptosis in UCI101 cells. Cells were incubated with 5b at 1, 3, 10 μM for 16 hours followed by PI staining and flow cytometry analysis. A subG0/1 population, representing apoptotic cells, appeared along with a decrease of the G1/G2 ratio after cells were treated with 3 μM 5b. Higher concentration (10 μM) of 5b completely killed cells, as was the case with stilbene 4a at […]. (c) Cells treated with stilbene 4a and 5b were stained with phospho-histone 3B, a mitotic marker. The positive signals of phospho-histone 3B were shown in green and nuclei were stained with DAPI in blue. […] (d) In vivo efficacy of 5b compared with stilbene 4a. Nude mice were injected with UCI101 ovarian cancer cells and treated with 7 doses of 5b,c or stilbene 4a every 2-3 days. Tumor volume was calculated and plotted against days.
The in vitro efficacy of these three compounds was tested in UCI101 cells in 96-well plate format and stained with Alamar blue™, The growth suppression was calculated as was done similarly to other test compounds. […] A dose response was then performed with various concentrations of 5b in vitro. […]

[7] = test system: UCI101 ovarian cancer cells (xenograft); assay: UCI101 xenograft in nude mice; assay type: in vivo
Experimental: as §1
We next tested whether 5b could be converted into stilbene 4a in circulation. […] Blood was collected at 20, 60 and 240 min after injection for spot check of stilbene 4a level in serum. […] The in vivo efficacy of 5b and 5c was compared to stilbene 4a in a pilot study using 5 mice in each group.

animal toxicity of 13a = details: 50 mg/kg
[8] = test system: SNU423 hepatocellular carcinoma cells; assay: Alamar Blue cell growth inhibition, SNU423; assay type: cell-based
In short: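 Cells at 50% confluence were treated for 48 h in triplicate with 0-10 μM compound or 0.1% DMSO vehicle. Alamar Blue was added at 1/10 volume for 2 h, and absorbance at 570 and 600 nm gave % growth via the manufacturer's extinction-coefficient formula relative to vehicle controls.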

[9] = test system: SKOV3 ovarian cancer cells; assay: Alamar Blue cell growth inhibition, SKOV3; assay type: cell-based
In short: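 SKOV3 cells at 50% confluence were treated 48 h with compounds, against 0.1% DMSO vehicle controls. Growth was read by Alamar Blue absorbance at 570 and 600 nm, with % growth inhibition from the manufacturer's extinction-coefficient formula. Each concentration was run in triplicate.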

[10] = test system: UCI101 ovarian cancer cells; assay: Western blot of signal transduction events, UCI101; assay type: cell-based
In short: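 UCI101 cells exposed to 0.1 μM compound for 0, 4, 8, 16 and 36 h, then harvested and analysed by Western blot. Probes covered G2-M regulators Cdc2, Cdc25c and BubR1, plus Akt phosphorylation.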

[11] = test system: MiaPaCa2 pancreatic cancer cells; assay: Alamar Blue cell growth inhibition, MiaPaCa2; assay type: cell-based; details: Homo sapiens, MIA PaCa-2; MiaPaCa2
Experimental: (§2) Various cancer cell lines were grown in 96-well plates for drug sensitivity assays. Once cells achieved 50% confluence, the incubation media was changed to the same cell growth media with different concentrations of the tested compounds or vehicle alone. Cells were then incubated for 48 hours before the cell growth inhibition study. To determine the degree of cell growth inhibition, 1/10 volume of Alamar Blue™ solution was added to each well and optical density (OD) at 570 and 600 nm was determined. The percentage of growth inhibition was calculated according to the manufacturer's formula as follows: The percentage of growth is [(117216×A570)−(80586×A600)]/[(117216×A^o570)−(80586×A^o600)]×100. In this formula, A570 is the absorbance of the treated samples at 570 nm; A600 is the absorbance of the treated samples at 600 nm; A^o570 is the absorbance of the […] samples at 570 nm; and A^o600 is the absorbance of the untreated samples at 600 nm. The two constants, 117216 and 80586, are the extinction coefficients of Alamar Blue™ at 570 and 600 nm respectively. Each concentration was repeated in triplicate to minimize the error.
(§3) We first tested the cytotoxic effect of various stilbene derivatives for their in vitro efficacy of suppressing tumor cell proliferation. Cells were first plated in 96-well plates at 50% confluence and treated with 0, 0.01, 0.03, 0.1, 0.3, 1.0, 3.0, 10 μM concentrations of stilbene derivatives for 48 hours in triplicate. Alamar Blue™ reagent was added into each well at 1/10 volume and incubated for 2 hours before quantification of the absorbance at 570 and 600 nm.

[12] = test system: MDA-MB231 breast cancer cells; assay: Alamar Blue cell growth inhibition, MDA-MB231; assay type: cell-based; details: Homo sapiens, MDA-MB-231; MDA-MB231
Experimental: Cell growth was measured by Alamar Blue™ staining and the percentage of cell growth inhibition was calculated and compared with control cells that were treated with 0.1% DMSO, the vehicles for the stilbene compounds.
as §2, §3

COc1cc(/C=C\c2ccc(OC)c(NC(=O)OCCN3CCOCC3)c2)cc(OC)c1 [5b, (Z)-{5-[2-(3,5-Dimethoxy-phenyl)-vinyl]-2-methoxy-phenyl}-carbamic acid 2-morpholin-4-yl-ethyl ester, oxalate salt]
fold less potent than stilbene 4a ([1]; UCI101, from IC50): about 100
IC50 ([1]; UCI101, estimated): ~3000 nM
tolerability ([2]; 100 mg/kg by intraperitoneal injection): tolerated well without complication
persistence in circulation ([2]; 100 mg/kg ip): stay in circulation longer than stilbene 4a
microtubule pattern (MDA-MB231 cells): completely disrupted microtubule formation
water solubility (in words) [3]: high solubility
solubility ([3]; HCl salt, read-out: water solubility, x HCl): 759000 µg/mL
solubility ([3]; free base, read-out: water solubility, Free base): < 1000 µg/mL
solubility ([3]; oxalate salt, read-out: water solubility, x (COOH)2): 5900 µg/mL
microtubule pattern (UCI101 cells [4]): partial disruption of microtubules
cell death / cell cycle arrest at 1 μM (UCI101 cells [5]; 1 μM): not effective in inducing cell death or cell cycle arrest
cell death / cell cycle arrest at 3 μM (UCI101 cells [5]; 3 μM): showed a significant activity
cell death / cell cycle arrest at 10 μM (UCI101 cells [5]; 10 μM): nearly all cells have committed to cell death
fold less potent than stilbene 4a in vitro (UCI101 cells [5]; 10 μM 5b equivalent to 100 nM stilbene 4a): 100
cell cycle effect (UCI101 cells [5]; 4a at 30, 100 nM, 5b at 1, 3, 10 μM): induced similar cell cycle arrest as stilbene 4a
concentration inducing a subG0/1 (dead) population (UCI101 cells [5]; 24 hours): 3 µM
phospho-histone 3B positive cells (UCI101 cells [6]): dramatic increase in positive cells
tumor growth versus control mice ([7]; 7 doses every 2-3 days): only compound that achieved statistical significance compared with control mice
tumor growth suppression ([7]; 7 doses every 2-3 days, 5 mice in each group): about 40%
mouse weight ([7]; mouse, in vivo): did not show any significant change

COc1cc(/C=C\c2ccc3c(ccn3C)c2)cc(OC)c1 [13a, (Z)-5-[2-(3,5-Dimethoxy-phenyl)-vinyl]-1-methyl-1H-indole]
neurotoxicity (animal toxicity of 13a): transient neurotoxicity was observed
IC50 ([8]; Homo sapiens, SNU-423, 48 h, read-out: IC50 (50% growth inhibition), SNU423, 48 hours): 10 nM
effective concentration, blocking cell proliferation ([8]; SNU423, 48 hours): 0.03 µM
relative potency / activity ([1]; UCI101, 48 hours): about equal in their potency
IC50 ([9]; Homo sapiens, SK-OV-3, SKOV, read-out: IC50): 50 to 100 nM
effective / active concentration ([9]; SKOV3, 48 hours): 0.1 µM
phosphorylation of Stat3 ([10]; 0.1 μM): more pronounced
phosphorylation of Chk1 ([10]; 36 hours): do not cause more phosphorylation of Chk1
water solubility (in words) [3]: poor water solubility
IC50 [11]: 10 nM
IC50 [12]: 10 nM

From patent US7781580B2, “Stilbene derivatives as new cancer therapeutic agents” (Virginia Commonwealth University, priority 2007, dated 2010)
